Tests used:
[1] = method code SF-AS, from DOI: 10.1021/es00166a009, PMID: 22195514; details: for logD: pH 1.5
[2] = method code SF-AS,RC, from DOI: 10.1021/es00166a009, PMID: 22195514; details: pH 1.5

SMILES | logD [1] | further results
Cc1cc(O)c([N+](=O)[O-])cc1Cl | 2.93 | –
Cc1ccc([N+](=O)[O-])c(O)c1 | – | logP [1]: 2.31
Cc1ccc(O)c([N+](=O)[O-])c1 | 2.37 | –
CCC(C)c1ccc(O)c([N+](=O)[O-])c1 (stereo unspecified) | 3.84 | –
Cc1cccc(O)c1[N+](=O)[O-] | – | logD [2]: 2.29
O=Cc1ccc(O)c([N+](=O)[O-])c1 | 1.48 | –
O=[N+]([O-])c1cc(-c2ccccc2)ccc1O | 3.71 | –
O=[N+]([O-])c1ccc(F)cc1O | 1.91 | –
COc1ccc(O)c([N+](=O)[O-])c1 | 2.02 | –
O=[N+]([O-])c1ccccc1O | 1.89 | –
O=[N+]([O-])c1cc(C(F)(F)F)ccc1O | 2.34 | –

From the SangsterLogP compilation
